Laboratory results reported in patent US20090062294A1, “HETEROARYL-SUBSTITUTED UREA MODULATORS OF FATTY ACID AMIDE HYDROLASE” (priority 2007, published 2009).
pIC50: −log10 of the molar value. Structures can show the parent of a compound that is named as a salt.

target: T1, FAAH (Homo sapiens, UniProt O00519); assay: Assay Method 1: FAAH assay, 3H-anandamide hydrolysis in homogenate of T84 cells or SK-N-MC cells transfected with human FAAH; type: biochemical; conditions: average of results, > = solubility limit or highest concentration tested
T1 sequence (O00519 1-579): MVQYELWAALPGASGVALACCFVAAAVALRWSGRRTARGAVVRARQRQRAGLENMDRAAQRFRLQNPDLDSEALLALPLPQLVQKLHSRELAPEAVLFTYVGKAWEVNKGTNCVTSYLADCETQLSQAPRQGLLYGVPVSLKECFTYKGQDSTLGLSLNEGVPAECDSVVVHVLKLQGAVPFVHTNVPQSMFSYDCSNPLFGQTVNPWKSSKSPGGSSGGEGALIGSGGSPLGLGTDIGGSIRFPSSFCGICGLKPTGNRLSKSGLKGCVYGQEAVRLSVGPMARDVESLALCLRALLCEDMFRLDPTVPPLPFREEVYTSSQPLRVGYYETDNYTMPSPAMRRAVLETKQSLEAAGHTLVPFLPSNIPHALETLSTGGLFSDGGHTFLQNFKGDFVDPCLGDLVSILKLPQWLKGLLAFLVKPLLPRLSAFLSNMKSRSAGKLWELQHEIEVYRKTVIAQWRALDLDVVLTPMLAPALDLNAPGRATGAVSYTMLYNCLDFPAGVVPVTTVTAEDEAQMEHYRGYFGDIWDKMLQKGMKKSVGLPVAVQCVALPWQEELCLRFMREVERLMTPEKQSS
Method: A. Transfection of Cells with Human FAAH
(§1) A 10-cm tissue culture dish with a confluent monolayer of SK—N-MC cells was split 2 days (d) prior to transfection. Using sterile technique, the media was removed and the cells were detached from the dish by the addition of trypsin. One fifth of the cells were then placed onto a new 10-cm dish. Cells were grown in a 37° C. incubator with 5% CO2 in Minimal Essential Media Eagle with 10% Fetal Bovine Serum. After 2 d, cells were approximately 80% confluent. These cells were removed from the dish with trypsin and pelleted in a clinical centrifuge. The pellet was re-suspended in 400 μL complete media and transferred to an electroporation cuvette with a 0.4 cm gap between the electrodes. Supercoiled human FAAH cDNA (1 μg) was added to the cells and mixed. The voltage for the electroporation was set at 0.25 kV, and the capacitance was set at 960 μF. After electroporation, the cells were diluted into complete media (10 mL) and plated onto four 10-cm dishes. Because of the variability in the efficiency of electroporation, four different concentrations of cells were plated. The ratios used were 1:20, 1:10, and 1:5, with the remainder of the cells being added to the fourth dish. The cells were allowed to recover for 24 h before adding the selection media (complete media with 600 μg/mL G418). After 10 d, dishes were analyzed for surviving colonies of cells. Dishes with well-isolated colonies were used. Cells from individual colonies were isolated and tested.
(§2) T84 frozen cell pellets or transfected SK—N-MC cells (contents of 1×15 cm culture dishes) were homogenized in 50 mL of FAAH assay buffer (125 mM Tris, 1 mM EDTA, 0.2% Glycerol, 0.02% Triton X-100, 0.4 mM Hepes, pH 9). The assay mixture consisted of 50 μL of the cell homogenate, 10 μL of the test compound, and 40 μL of anandamide [1-^3H-ethanolamine] (^3H-AEA, Perkin-Elmer, 10.3 Ci/mmol), which was added last, for a final tracer concentration of 80 nM. The reaction mixture was incubated at rt for 1 h. During the incubation, 96-well Multiscreen filter plates (catalog number MAFCNOB50; Millipore, Bedford, Mass., USA) were loaded with 25 μL of activated charcoal (Multiscreen column loader, catalog number MACL09625, Millipore) and washed once with 100 μL of MeOH. Also during the incubation, 96-well DYNEX MicroLite plates (catalog number NL510410) were loaded with 100 μL of MicroScint40 (catalog number 6013641, Packard Bioscience, Meriden, Conn., USA). After the 1 h incubation, 60 μL of the reaction mixture were transferred to the charcoal plates, which were then assembled on top of the DYNEX plates using Centrifuge Alignment Frames (catalog number MACF09604, Millipore). The unbound labeled ethanolamine was centrifuged through to the bottom plate (5 min at 2000 rpm), which was preloaded with the scintillant, as described above. The plates were sealed and left at rt for 1 h before counting on a Hewlett Packard TopCount.
(§3) Compounds were tested in free base, hydrochloride salt, and/or trifluoroacetic acid salt forms.

Compound | pIC50
O=C(Nc1noc2ccccc12)N1CCN(Cc2ccc3c(c2)OC(F)(F)O3)CC1 [Example 1, 4-(2,2-Difluoro-benzo[1,3]dioxol-5-ylmethyl)-piperazine-1-carboxylic acid benzo[d]isoxazol-3-ylamide trifluoroacetic acid salt] | 6.99
O=C(Nc1nc(-c2ccccc2)ns1)N1CCN(Cc2ccc3c(c2)OC(F)(F)O3)CC1 [Example 2, 4-(2,2-Difluoro-benzo[1,3]dioxol-5-ylmethyl)-piperazine-1-carboxylic acid (3-phenyl-[1,2,4]thiadiazol-5-yl)-amide trifluoroacetic acid salt] | 6.67
O=C(Nc1nnn[nH]1)N1CCN(Cc2ccc3c(c2)OC(F)(F)O3)CC1 [Example 3, 4-(2,2-Difluoro-benzo[1,3]dioxol-5-ylmethyl)-piperazine-1-carboxylic acid (1H-tetrazol-5-yl)-amide trifluoroacetic acid salt] | 5.92
O=C(Nc1cccc2nsnc12)N1CCN(Cc2ccc3c(c2)OC(F)(F)O3)CC1 [Example 4, 4-(2,2-Difluoro-benzo[1,3]dioxol-5-ylmethyl)-piperazine-1-carboxylic acid benzo[1,2,5]thiadiazol-4-ylamide trifluoroacetic acid salt] | 7.23
O=C(Nc1noc2ccccc12)N1CCN(Cc2cccc(Oc3ncccn3)c2)CC1 [Example 95, 4-[3-(Pyrimidin-2-yloxy)-benzyl]-piperazine-1-carboxylic acid benzo[d]isoxazol-3-ylamide] | 5.55
O=C(Nc1noc2ccccc12)N1CCN(Cc2ccc3cn[nH]c3c2)CC1 [Example 101, N-1,2-Benzisoxazol-3-yl-4-(1H-indazol-6-ylmethyl)piperazine-1-carboxamide] | 5.20
O=C(Nc1ccon1)N1CCN(Cc2ccc(OCc3ccccc3)cc2)CC1 [Example 135, 4-[4-(Benzyloxy)benzyl]-N-isoxazol-3-ylpiperazine-1-carboxamide] | 6.08
O=C(Nc1ccon1)N1CCN(Cc2cc3ccccc3s2)CC1 [Example 142, 4-(1-Benzothiophen-2-ylmethyl)-N-isoxazol-3-ylpiperazine-1-carboxamide] | 5.70
O=C(Nc1ccon1)N1CCN(Cc2ccc3ccccc3n2)CC1 [Example 146, 4-Quinolin-2-ylmethyl-piperazine-1-carboxylic acid isoxazol-3-ylamide] | 5.52
O=C(Nc1ccon1)N1CCN(Cc2ccc(Br)c(Br)c2)CC1 [Example 154, 4-(3,4-Dibromobenzyl)-N-isoxazol-3-ylpiperazine-1-carboxamide] | 5.89
O=C(Nc1nn[nH]n1)N1CCN(Cc2ccc3c(c2)OCO3)CC1 [Example 180, 4-Benzo[1,3]dioxol-5-ylmethyl-piperazine-1-carboxylic acid (2H-tetrazol-5-yl)-amide] | < 5.00
O=C(Nc1cnccn1)N1CCN(Cc2ccc(OCc3ccccc3)cc2)CC1 [Example 219, 4-[4-(Benzyloxy)benzyl]-N-pyrazin-2-ylpiperazine-1-carboxamide] | 6.64
O=C(Nc1cnccn1)N1CCN(Cc2cccc(OCc3ccccc3)c2)CC1 [Example 223, 4-[3-(Benzyloxy)benzyl]-N-pyrazin-2-ylpiperazine-1-carboxamide] | 6.74

target: T2, rat FAAH (Rattus norvegicus, UniProt P97612); assay: Assay Method 2: FAAH assay, 3H-anandamide hydrolysis in homogenate of SK-N-MC cells transfected with rat FAAH; type: biochemical; conditions: average of results, > = solubility limit or highest concentration tested
T2 sequence (P97612 1-579): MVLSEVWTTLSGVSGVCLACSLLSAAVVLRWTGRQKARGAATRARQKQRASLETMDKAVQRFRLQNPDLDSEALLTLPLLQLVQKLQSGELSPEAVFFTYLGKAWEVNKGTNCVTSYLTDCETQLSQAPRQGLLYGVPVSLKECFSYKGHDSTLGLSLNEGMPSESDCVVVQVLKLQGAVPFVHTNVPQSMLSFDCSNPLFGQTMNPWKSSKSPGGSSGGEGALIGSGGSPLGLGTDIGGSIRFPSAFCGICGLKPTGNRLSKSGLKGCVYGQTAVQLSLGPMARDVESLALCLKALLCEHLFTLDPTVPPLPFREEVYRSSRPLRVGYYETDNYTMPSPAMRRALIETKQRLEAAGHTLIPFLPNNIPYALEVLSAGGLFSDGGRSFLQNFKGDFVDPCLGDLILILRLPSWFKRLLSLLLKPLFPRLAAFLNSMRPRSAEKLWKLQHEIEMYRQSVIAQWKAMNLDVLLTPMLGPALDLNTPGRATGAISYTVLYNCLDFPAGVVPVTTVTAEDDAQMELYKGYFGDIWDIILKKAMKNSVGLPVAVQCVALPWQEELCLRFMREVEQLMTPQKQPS
Method: A. Transfection of Cells with Rat FAAH
as §1, with “rat” for “human”
as §2, §3

Compound | pIC50
O=C(Nc1noc2ccccc12)N1CCN(Cc2ccc3c(c2)OC(F)(F)O3)CC1 [Example 1, 4-(2,2-Difluoro-benzo[1,3]dioxol-5-ylmethyl)-piperazine-1-carboxylic acid benzo[d]isoxazol-3-ylamide trifluoroacetic acid salt] | 6.47
O=C(Nc1nnn[nH]1)N1CCN(Cc2ccc3c(c2)OC(F)(F)O3)CC1 [Example 3, 4-(2,2-Difluoro-benzo[1,3]dioxol-5-ylmethyl)-piperazine-1-carboxylic acid (1H-tetrazol-5-yl)-amide trifluoroacetic acid salt] | 5.05
O=C(Nc1cccc2nsnc12)N1CCN(Cc2ccc3c(c2)OC(F)(F)O3)CC1 [Example 4, 4-(2,2-Difluoro-benzo[1,3]dioxol-5-ylmethyl)-piperazine-1-carboxylic acid benzo[1,2,5]thiadiazol-4-ylamide trifluoroacetic acid salt] | 6.59
O=C(Nc1ccc2ncccc2n1)N1CCC(Cc2ccc3ccccc3c2)CC1 [Example 17, 4-Naphthalen-2-ylmethyl-piperidine-1-carboxylic acid [1,5]naphthyridin-2-ylamide trifluoroacetic acid salt] | 6.29
O=C(Nc1ccc(Cl)nn1)N1CCC(Cc2ccc(F)cc2)CC1 [Example 23, 4-(4-Fluoro-benzyl)-piperidine-1-carboxylic acid (6-chloro-pyridazin-3-yl)-amide] | 5.30
O=C(Nc1ccon1)N1CCC(Cc2ccc(F)cc2)CC1 [Example 24, 4-(4-Fluoro-benzyl)-piperidine-1-carboxylic acid isoxazol-3-ylamide] | 5.40
O=C(Nc1cccc2nsnc12)N1CCN(Cc2cccc(Oc3ccc(Cl)cc3)c2)CC1 [Example 37, 4-[3-(4-Chloro-phenoxy)-benzyl]-piperazine-1-carboxylic acid benzo[1,2,5]thiadiazol-4-ylamide trifluoroacetic acid salt] | 8.22
O=C(Nc1cc[nH]n1)N1CCN(Cc2cccc(Oc3ccc(Cl)cc3)c2)CC1 [Example 53, 4-[3-(4-Chloro-phenoxy)-benzyl]-piperazine-1-carboxylic acid (1H-pyrazol-3-yl)-amide trifluoroacetic acid salt] | 7.52
O=C(Nc1nnn[nH]1)N1CCN(Cc2cccc(Oc3ccc(Cl)cc3)c2)CC1 [Example 57, 4-[3-(4-Chloro-phenoxy)-benzyl]-piperazine-1-carboxylic acid (1H-tetrazol-5-yl)-amide trifluoroacetic acid salt] | 6.78
O=C(Nc1ccon1)N1CCN(Cc2cnc3ccccc3c2)CC1 [Example 147, 4-Quinolin-3-ylmethyl-piperazine-1-carboxylic acid isoxazol-3-ylamide] | < 5.00
O=C(Nc1nnn[nH]1)N1CCN(Cc2ccc3ccccc3n2)CC1 [Example 175, 4-(Quinolin-2-ylmethyl)-N-1H-tetrazol-5-ylpiperazine-1-carboxamide] | 6.00
